Entries after “also recorded” stand apart in the source; their conditions may differ. Counter-ions that a name gives are not always drawn. Like-named read-outs stand apart in the source and are kept apart here.
How the values were obtained:
mouse injected with PBQ = test: Writhing Assay (PBQ-induced writhing in mice); assay type: in vivo, Charles River male albino mice; conditions: for ED50: Mus musculus
Text: The Writhing Assay is one of the most widely-used experimental procedures for measuring the analgesic activity of different narcotic and nonnarcotic analgesic agents, and involves the continuous, chemically-induced pain of visceral origin to an animal, such as a mouse or rat. [Gyires et al., Arch., int. Pharmacodyn, 267, 131-140 (1984); C. Vander Wende et al., Fed. Proc., 15, 494 (1956); Koster et al., Fed. Proc., 18, 412 (1959); and Witken et al., J. Pharmacol. exp. Ther., 133, 400-408 (1961).] Chemicals which may be used to induce this pain include phenylbenzoquinone (PBQ) and acetic acid. As a result of the chemical irritation to the animal, a characteristic stretching and writhing of the animal (dorsiflexion of the animal's back, extension of its hindlimbs and the strong contraction of its abdominal musculature) will generally occur. […] Drugs which reduce the number of writhes of the animal appear to restore the normal nociceptive threshold of the animal.
Charles River male albino mice, weighing 20 to 30 grams, were used in this assay.
Thirty minutes after subcutaneous or intragastric administration to ten mice of 30 mg per kilogram of body weight of a compound of the present invention ("test compound"), […] per 10 g of body weight of a 0,025% w/v solution of PBQ was injected intraperitoneally into each mouse. Ten mice which were given saline in place of a test compound of the invention were used as a control group.
Five minutes later, each mouse was individually placed into a glass beaker for observation, and the number of writhes occurring during the following ten-minute period was counted.
A test compound was considered to have produced analgesia in a mouse if, in accordance with the conditions set forth above, and under the test criteria employed for this assay, after the administration of 30 mg per kilogram of body weight of a compound of the present invention to the mouse, the number of writhes elicited by a mouse injected with PBQ was equal to, or less than, one-half the median number of writhes recorded for the saline-treated control group of mice that day, as described by Taber in "Predictive Value of Analgesic Assays in Mice and Rats," Advances in Biochemical Psychopharmacology, 8, 191 (1974).
The standard initial screening dose of a test compound employed in this assay was […] for both routes of administration. If this initial screening dose of the test compound produced analgesia in seven of ten mice, then the effect of additional doses of the test compound on the writhing response was evaluated, and then the ED50 dose was generally calculated. (The slopes of the dose-response curves for all test compounds analyzed were compared as described by Tallarida and Murray, Manual of Pharmacologic Calculations, Page 11 (Springer Verlag, New York, 1981)).

[1] = target: T1, prostaglandin E2-induced contractions of segments of guinea pig ileum (Cavia porcellus, UniProt A0A286XHJ6); test: Prostaglandin (PGE) Antagonism Assay, guinea pig ileum; assay type: cell-based; parameters: key to PGE in guinea pig ileum, activity: Active: the initial concentration used yielded at least a two-fold shift (dose ratio greater than or equal to 2) in the dose response curve for prostaglandin E2
T1 construct: Segments of ileum about 2 cm long were then cut and mounted in a 10-mL tissue bath; from tissue; host or cells: guinea pig ileum segments
T1 sequence (A0A286XHJ6 1-405): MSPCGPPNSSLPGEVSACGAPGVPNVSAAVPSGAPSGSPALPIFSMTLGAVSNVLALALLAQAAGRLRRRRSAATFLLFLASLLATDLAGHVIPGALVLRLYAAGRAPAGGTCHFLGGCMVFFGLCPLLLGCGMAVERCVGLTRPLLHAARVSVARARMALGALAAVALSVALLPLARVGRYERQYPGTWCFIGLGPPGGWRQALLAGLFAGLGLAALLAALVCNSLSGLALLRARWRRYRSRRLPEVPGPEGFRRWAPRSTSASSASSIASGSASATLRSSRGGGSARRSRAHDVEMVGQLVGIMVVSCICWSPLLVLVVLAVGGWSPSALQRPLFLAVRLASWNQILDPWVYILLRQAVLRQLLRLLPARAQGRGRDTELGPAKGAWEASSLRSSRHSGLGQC
Description: In order to determine the effectiveness of several of the compounds of the present invention ("test compounds") as prostaglandin E2 antagonists,a prostaglandin antagonism assay was conducted, as described below, to determine the ability of these compounds to inhibit prostaglandin E2 -induced contractions of segments of guinea pig ileum.
Male albino guinea pigs weighing 200 to 500 grams were sacrificed by cervical dislocation. The ilea were then quickly removed from the guinea pigs and placed in a modified Tyrode solution, a solution which is known to those skilled in the art, containing one-half of the usual amount of magnesium ions.
Segments of ileum about 2 cm long were then cut and mounted in a 10-mL tissue bath containing the modified Tyrode solution. The solution was maintained at 37° C. and aerated with a gaseous mixture of 95% oxygen and 5% carbon dioxide. Data for a control prostaglandin E2 dose response curve plotting concentration of prostaglandin E2 versus the intensity of contractions, detected isotonically, was then obtained by experimentally adjusting the dose of the prostaglandin E2 being injected into the tissue bath, in a manner known by those of skill in the art.
solutions or suspensions containing an initial concentration (3 micromolar) of a test compound in modified Tyrode solution ("test solutions/suspensions") were then separately substituted for the control bath solution. Each test solution/suspension was then kept in constant contact with the ileum tissue, except for brief periods to drain the bath in preparation for rinsing with fresh test solution/suspension. A second prostaglandin E2 dose response curve was then generated for prostaglandin E2 in the presence of a test compound.
A dose ratio of EC50 doses was then calculated from the results of each test in a manner known by those of skill in the art. A test compound was determined to be "active" if the initial concentration used yielded at least a two-fold shift (dose ratio greater than or equal to 2) in the dose response curve for prostaglandin E2.

[2] = system: stimulant actions of prostaglandins on isolated smooth muscle preparations; conditions: literature; cited from earlier work
[3] = system: urethane-anesthetized rats; conditions: literature; cited from earlier work
[4] = po, intragastric, read-out: Writhing Assay ED50 Dose, I.G.
[5] = sc, subcutaneous, read-out: Writhing Assay ED50 Dose, S.C.
[6] = estimated, assuming Schild slope -1.0, initial concentration 3 micromolar, read-out: PGE in guinea pig ileum, Estimated pA2 value (converted)
[7] = initial concentration 3 micromolar
[8] = Schild plot calculation, varying concentrations, read-out: PGE in guinea pig ileum (pA2) (converted)

Row | SMILES | Kb [1, 6] [nM] | PGE in guinea pig ileum, activity [1, 7] | Kb [1, 8] [nM] | rank order of potency in the Writhing Assay (mouse injected with PBQ) | further results
1 | CCS(=O)(=O)CCC(=O)NCC(=O)N1Cc2ccccc2Oc2ccc(Cl)cc21 [Example 1, N-[2-(8-chloro-10,11-dihydrodibenz[b,f][1,4]oxazepin-10-yl)-2-oxoethyl]-3-(ethylsulfonyl) propanamide] | 2000 | Active |  | Example 1>Example 2>Example 3>Example 9; also recorded: the most potent compound of the invention tested in this assay | ED50 (mouse injected with PBQ; [4]): 5.9 mg/kg; ED50 (mouse injected with PBQ; [5]): 11.2 mg/kg
2 | O=C(CCSCc1ccco1)NCC(=O)N1Cc2ccccc2Oc2ccc(Cl)cc21 [Example 2, N-[2-(8-chloro-10,11-dihydrodibenz[b,f][1,4]oxazepin-10-yl)-2-oxoethyl]-3[(2-furanylmethyl)thio]propanamide] |  | Active | 10 | Example 1>Example 2>Example 3>Example 9 | ED50 (mouse injected with PBQ; [4]): 13.5 mg/kg; ED50 (mouse injected with PBQ; [5]): 14.8 mg/kg
3 | O=C(CCc1ccncc1)NCC(=O)N1Cc2ccccc2Oc2ccc(Cl)cc21 [Example 3, N-[2-{8-chloro-10,11-dihydrodibenz[b,f][1,4]oxazepin-10-yl)-2-oxoethyl]-4-pyridinepropanamide, monohydrochloride] | 2000 | Active |  | Example 1>Example 2>Example 3>Example 9 | ED50 (mouse injected with PBQ; [5]): 16.9 mg/kg
4 | O=C(CCSCc1cccs1)NCC(=O)N1Cc2ccccc2Oc2ccc(Cl)cc21 [Example 4, N-[2-(8-chlorodibenz-10-11-dihydrobenz[b,f][1,4]oxazepin-10-yl)-2-oxoethyl]-3-[(2-thenylmethyl)thio]propanamide] |  | Active | 12.6 |  | 
5 | NCCC(=O)NCC(=O)N1Cc2ccccc2Oc2ccc(Cl)cc21 [Example 5, 3-Amino-N-[2-(8-chloro-10,11-dihydrodibenz[b,f][1,4]oxazepin-10-yl)-2-oxoethyl]-propanamide, monohydrochloride] |  | Active |  |  | PGE in guinea pig ileum, Estimated pA2 value ([1]; estimated, assuming Schild slope -1.0, initial concentration 3 micromolar): 5.5
6 | O=C(Cc1ccccc1)NNC(=O)N1Cc2ccccc2Oc2ccc(Cl)cc21 [SC-18637] |  |  |  |  | effect on stimulant actions of prostaglandins on isolated smooth muscle preparations [2]: inhibit the stimulant actions of prostaglandins on isolated smooth muscle preparations
7 | CC(=O)NNC(=O)N1Cc2ccccc2Oc2ccc(Cl)cc21 [SC-19220] |  |  |  |  | effect on stimulant actions of prostaglandins on isolated smooth muscle preparations [2]: inhibit the stimulant actions of prostaglandins on isolated smooth muscle preparations; effect on bladder capacity [3]: increased the bladder capacity; effect on voiding efficiency of micturition [3]: reduced the voiding efficiency of micturition

Further lines, with some results ahead:

Row | Kb [1, 6] [nM] | PGE in guinea pig ileum, activity [1, 7] | Kb [1, 8] [nM] | SMILES | rank order of potency in the Writhing Assay (mouse injected with PBQ) | further results
8 | 1260 | Active |  | CN(C)CCSCCC(=O)NCC(=O)N1Cc2ccccc2Oc2ccc(Cl)cc21 [Example 6, N-[2-(8-chloro,10,11-dihydrodibenz[b,f][1,4]oxazepin-10-yl)-2-oxoethyl]-3-[[2-(dimethylamino)ethyl]thio]propanamide, monohydrochloride] |  | 
9 |  | Active | 316 | O=C(CCNCc1cccs1)NCC(=O)N1Cc2ccccc2Oc2ccc(Cl)cc21 [Example 7, N-[2-(8-chloro-10,11-dihydrodibenz[b,f][1,4]oxazepin-10-yl)-2-oxoethyl)-3-[(2-thienylmethyl)amino]propanamide, monohydrochloride] |  | 
10 | 2510 | Active |  | CCS(=O)(=O)CCC(=O)CNC(=O)N1Cc2ccccc2Oc2ccc(Cl)cc21 [Example 8, 8-chloro-N-[4-(ethylsulfonyl)-2-oxobutyl]dibenz[b,f][1,4]oxazepin-10(11H)-carboxamide] |  | 
11 |  | Active | 63.1 | O=C(CCSCc1ccco1)CNC(=O)N1Cc2ccccc2Oc2ccc(Cl)cc21 [Example 9, 8-chloro-N-[4-[(2-furanylmethyl)thio]-2-oxobutyl]dibenz[b,f][1,4]oxazepin-10(11H]-carboxamide] | Example 1>Example 2>Example 3>Example 9 | 

— US5382578A, “Methods for treating convulsions and ischemia with substituted dibenzoxazepine compounds” (G. D. Searle & Co., priority 1993, dated 1995)
